Experimental data: US8546403B2, “Compounds that modulate intracellular calcium” (Calcimedica, Inc., priority 2010, dated 2013)

Assay: Microsomal stability of compounds (liver microsomes, LC/MS/MS)
Type: in vitro ADME
Conditions: 1 mg/mL microsomal protein, 37° C. up to 60 minutes, species and Phase I / Phase I+II not given; for half-life at 5 μM: pH 7.4, 5 μM test compound, read-out: Microsomal t ½; for Microsomal t ½ (min): 5 μM test compound
Procedure: Microsomal Stability of Compounds Described Herein
Liver microsomes are purchased from XenoTech, LLC (Lenexa, Kans.). Other chemicals are obtained from Sigma-Aldrich (Milwaukee, Wis.). Solvents for LC/MS/MS mobile phases and disposable labware are obtained from various vendors.
Study Protocol Phase I Only (Oxidative Metabolism in the Presence of NADPH-Regenerating System but without UDPGA):
A mixture of the test compound and liver microsomes (475 μL total) are pre-incubated for 5 minutes at 37° C. The reactions are initiated by the addition of 25 μL of the co-factor NADPH regenerating system) and are allowed to proceed at 37° C. for up to 60 minutes. The final concentrations in the assay were: 5 μM test compound, 1 mg/mL microsomal protein, 1 mM NADP+, 5 mM glucose-6-phosphate and 1 U/mL glucose-6-phosphate dehydrogenase in 50 mM potassium phosphate (pH 7.4) containing 3.3 mM MgCl2 and 100 μM EDTA. […] At pre-determined time points, the reactions are terminated by removing 50 μL-aliquots and quenching them with […] of ACN mixture containing 0.5 μM of the internal standard (carbamazepine) to achieve protein precipitation. The samples are vortexed, centrifuged at 4000 rpm (3400 rcf) for 15 minutes, and clear supernatants are analyzed by LC/MS/MS.
Phase I and II: (Oxidative Metabolism and Conjugation in the Presence of NADPH-Regenerating System and UDPGA):
The reaction mixtures are prepared similar to what is described above, except 6.6 mM UDPGA, 6.25 μg/mL alamethicin, and 1.25 mM of D-Saccharic acid 1,4-lactone (final assay concentrations) are also added together with the NADPH-regenerating system. Midazolam and 4-methylumbelliferone are used as positive controls for Phase I and Phase II, respectively.
Bioanalysis is conducted using a non-GLP LC/MS/MS method. Calibration curves are not generated and the ratios of the test compound peak area to the internal standard peak area are used to determine the relative amounts of test compound remaining at each time point.

SMILES	half-life at 5 μM [min]	Microsomal t ½ (min)
O=C(Nc1ccc(-c2cc3c(cc2Cl)OC(F)(F)O3)cn1)c1c(F)cccc1F [Compound 3]		Stable (Stable is defined herein as less than 10% degradation)
O=C(Nc1ccc(-c2cc3c(cc2Cl)OC(F)(F)O3)cn1)c1ccncc1Cl [Compound 8]		Stable (Stable is defined herein as less than 10% degradation)
O=C(Nc1ccc(-c2cc3c(cc2Cl)OC(F)(F)O3)cn1)c1c(F)cncc1F [Compound 9]		Stable (Stable is defined herein as less than 10% degradation)
O=C(Nc1cnc(-c2cc3c(cc2Cl)OC(F)(F)O3)cn1)c1ccccc1F [Compound 13]		Stable (Stable is defined herein as less than 10% degradation)
Cc1nnsc1C(=O)Nc1cnc(-c2cc3c(cc2Cl)OC(F)(F)O3)cn1 [Compound 14]		Stable (Stable is defined herein as less than 10% degradation)
Cc1ccccc1C(=O)Nc1cnc(-c2cc3c(cc2Cl)OC(F)(F)O3)cn1 [Compound 17]		Stable (Stable is defined herein as less than 10% degradation)
O=C(Nc1cnc(-c2cc3c(cc2Cl)OC(F)(F)O3)cn1)c1cccc(F)c1F [Compound 18]		Stable (Stable is defined herein as less than 10% degradation)
Cc1ccc(F)cc1C(=O)Nc1cnc(-c2cc3c(cc2Cl)OC(F)(F)O3)cn1 [Compound 19]		Stable (Stable is defined herein as less than 10% degradation)
Cc1cc2c(cc1-c1ccc(NC(=O)c3c(F)cccc3F)nc1)OC(F)(F)O2 [Compound 21]		Stable (Stable is defined herein as less than 10% degradation)
Cc1cc2c(cc1-c1cnc(NC(=O)c3c(F)cccc3F)cn1)OC(F)(F)O2 [Compound 23]		Stable (Stable is defined herein as less than 10% degradation)
Cc1cc2c(cc1-c1cnc(NC(=O)c3ccccc3F)cn1)OC(F)(F)O2 [Compound 25]		Stable (Stable is defined herein as less than 10% degradation)
O=C(Nc1ccc(-c2cc3c(cc2Cl)OC(F)(F)O3)cn1)C1CCCC1 [Compound 27]	40	
Cc1cc2c(cc1-c1cnc(NC(=O)c3c(F)cncc3F)cn1)OC(F)(F)O2 [Compound 28]		Stable (Stable is defined herein as less than 10% degradation)
O=C(Nc1cnc(-c2cc3c(cc2Cl)OC(F)(F)O3)cn1)C1CCCC1 [Compound 29]	38	
O=C(Nc1ccc(-c2cc3c(cc2Cl)OC(F)(F)O3)cn1)C1CCC1 [Compound 30]	11	
CCCC(=O)Nc1ccc(-c2cc3c(cc2Cl)OC(F)(F)O3)cn1 [Compound 32]	19	
O=C(Nc1ccc(-c2cc3c(cc2Cl)OC(F)(F)O3)cn1)C1CC1 [Compound 33]	81	
CC(C)C(=O)Nc1ccc(-c2cc3c(cc2Cl)OC(F)(F)O3)cn1 [Compound 34]		Stable (Stable is defined herein as less than 10% degradation)
Cc1cc2c(cc1-c1ccc(NC(=O)c3c(F)cncc3F)nc1)OC(F)(F)O2 [Compound 35]		Stable (Stable is defined herein as less than 10% degradation)

Continued, in another order:

half-life at 5 μM [min]	SMILES	Microsomal t ½ (min)
6	O=C(Nc1ccc(-c2cc3c(cc2Br)OCO3)cn1)c1c(F)cccc1F [Compound 1]	
3	O=C(Nc1ccc(-c2cc3c(cc2Br)OCO3)cc1)c1c(F)cccc1F [Compound 2]	
281	O=C(Nc1ccc(-c2cc3c(cc2Cl)OC(F)(F)O3)cn1)c1ccncc1F [Compound 4]	
339	O=C(Nc1ccc(-c2cc3c(cc2Cl)OC(F)(F)O3)cn1)c1ccncc1Cl [Compound 7]	
22	Cc1cc2c(cc1-c1ccc(NC(=O)c3c(F)cccc3F)nc1)OCO2 [Compound 10]	
36	[2H]C1([2H])Oc2cc(C)c(-c3ccc(NC(=O)c4c(F)cccc4F)nc3)cc2O1 [Compound 15]	
17	[2H]C1([2H])Oc2cc(C)c(-c3cnc(NC(=O)c4c(F)cccc4F)cn3)cc2O1 [Compound 16]	
74	Cc1c(F)cccc1C(=O)Nc1cnc(-c2cc3c(cc2Cl)OC(F)(F)O3)cn1 [Compound 20]	
109	Cc1ccccc1C(=O)Nc1ccc(-c2cc3c(cc2C)OC(F)(F)O3)cn1 [Compound 22]	
67	Cc1ccccc1C(=O)Nc1cnc(-c2cc3c(cc2C)OC(F)(F)O3)cn1 [Compound 24]	
47	Cc1ccc(F)cc1C(=O)Nc1cnc(-c2cc3c(cc2C)OC(F)(F)O3)cn1 [Compound 26]	
26	O=C(CCc1ccccc1)Nc1ccc(-c2cc3c(cc2Cl)OC(F)(F)O3)cn1 [Compound 31]	
